Where a SMILES comes first, the peptide text is derived from it. Bridges are numbered along the chain shown (N, C = ends). [ ]: non-standard residue; d: D form. The star is where a group is joined. Hexanoyl(4S-Me) = CC[C@H](C)CCC(=O)*; d(aIle) = CC[C@H](C)[C@@H](N)C(=O)O; d(aThr) = C[C@@H](O)[C@@H](N)C(=O)O; Tic = O=C(O)[C@@H]1Cc2ccccc2CN1; 2Thi = N[C@@H](Cc1cccs1)C(=O)O; Orn = NCCC[C@H](N)C(=O)O; Dhb = C/C=C(\N)C(=O)O
How the values were obtained:
Type in all cases: cell-based, human
PANC-1 = test: SRB colorimetric assay of cell growth and viability, PANC-1; details: 48 hours exposure, SRB; for CC50: read-out: LC50 PANC-1
K-562 = test: SRB colorimetric assay of cell growth and viability, K-562; details: 48 hours exposure, SRB; for CC50: read-out: LC50 K-562
SK-MEL-28 = test: SRB colorimetric assay of cell growth and viability, SK-MEL-28; details: 48 hours exposure, SRB; for CC50: read-out: LC50 MEL-28
HT-29 = test: SRB colorimetric assay of cell growth and viability, HT-29; details: 48 hours exposure, SRB; for GI50: read-out: GI50 HT-29; for CC50: read-out: LC50 HT-29
IGROV-1 = test: SRB colorimetric assay of cell growth and viability, IGROV-1; details: 48 hours exposure, SRB
LoVo-Dox = test: SRB colorimetric assay of cell growth and viability, LoVo-Dox; details: 48 hours exposure, SRB; for CC50: read-out: LC50 LOVO-DOX
In short: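 After 48 hours continuous exposure to samples spanning 10 to 10^−8 μg/mL, biomass was quantified by sulforhodamine B staining of TCA-fixed cells (OD 490 nm). Cells, 5×10^3 per well in RPMI 1640 10% FBS, had attached 18 hours first; GI, TGI and LC derived from triplicate wells.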

IGROV-ET = test: SRB colorimetric assay of cell growth and viability, IGROV-ET; details: 48 hours exposure, SRB; for CC50: read-out: LC50 IGROV-ET
SK-BR-3 = test: SRB colorimetric assay of cell growth and viability, SK-BR-3; details: 48 hours exposure, SRB
Source text: The finality of this assay is to interrupt the growth of a “in vitro” tumor cell culture by means a continued exhibition of the cells to the sample to be testing.
This form of the assay employs 96 well cell culture microplates of 9 mm diameter (Faircloth, 1988; Mosmann, 1983). Most of the cell lines are obtained from American Type Culture Collection (ATCC) derived from different human cancer types.
Cells are maintained in RPMI 1640 10% FBS, supplemented with 0.1 g/l penicillin and 0.1 g/l streptomycin sulfate and then incubated at 37° C., 5% CO2 and 98% humidity. For the experiments, cells were harvested from subconfluent cultures using trypsin and resuspended in fresh medium before plating.
Cells are seeded in 96 well microtiter plates, at 5×10^3 cells per well in aliquots of 195 μL medium, and they are allowed to attach to the plate surface by growing in drug free medium for 18 hours. Afterward, samples are added in aliquots of 5 μL in a ranging from 10 to 10^−8 μg/mL, dissolved in DMSO:EtOH:PBS (0.5:0.5:99). After 48 hours exposure, the antitumor effect are measured by the SRB methodology: cells are fixed by adding 50 μL of cold 50% (wt/vol) trichloroacetic acid (TCA) and incubating for 60 minutes at 4° C. Plates are washed with deionized water and dried. One hundred μL of SRB solution (0.4% wt/vol in 1% acetic acid) is added to each microtiter well and incubated for 10 minutes at room temperature. Unbound SRB is removed by washing with 1% acetic acid. Plates are air dried and bound stain is solubilized with Tris buffer. Optical densities are read on a automated spectrophotometric plate reader at a single wavelength of 490 nm.
The values for mean+/− SD of data from triplicate wells are calculated. Some parameters for cellular responses can be calculated: GI=growth inhibition, TGI=total growth inhibition (cytostatic effect) and LC=cell killing (cytotoxic effect).

DU-145 = test: SRB colorimetric assay of cell growth and viability, DU-145; details: 48 hours exposure, SRB
HeLa = test: SRB colorimetric assay of cell growth and viability, HeLa; details: 48 hours exposure, SRB; for CC50: read-out: LC50 HELA
LoVo = test: SRB colorimetric assay of cell growth and viability, LoVo; details: 48 hours exposure, SRB; for CC50: read-out: LC50 LOVO
HeLa-APL = test: SRB colorimetric assay of cell growth and viability, HeLa-APL; details: 48 hours exposure, SRB; for CC50: read-out: LC50 HELA-APL
A-549 = test: SRB colorimetric assay of cell growth and viability, A-549; details: 48 hours exposure, SRB; for GI50: read-out: GI50 A-549; for CC50: read-out: LC50 A-549

## C/C=C1\NC(=O)[C@H](Cc2cccs2)NC(=O)[C@@H](C(C)C)NC(=O)[C@@H]([C@@H](C)CC)NC(=O)[C@H](NC(=O)[C@H](NC(=O)[C@H](CCCN)NC(=O)[C@H]2CCCN2C(=O)[C@H](NC(=O)[C@@H](NC(=O)[C@@H](NC(=O)[C@H](NC(=O)CC[C@@H](C)CC)C(C)C)[C@@H](C)O)C(C)C)C(C)C)[C@@H](C)CC)[C@@H](C)OC(=O)[C@H](C(C)C)NC1=O [Compound 76, [Thi^3, (4S)-MeHex^14]-KF] ({Hexanoyl(4S-Me)}-[dV]TV[dV][dP][Orn][d(aIle)][d(aThr)][d(aIle)][dV][2Thi][Dhb]V; ester 8-C)
PANC-1
  GI50: 5930 nM
  TGI PANC-1: 6.74E−06 Molar
  CC50: 6740 nM
K-562
  GI50: 1710 nM
  TGI K-562: 4.01E−06 Molar
  CC50: 6740 nM
SK-MEL-28
  GI50: 1540 nM
  TGI MEL-28: 2.52E−06 Molar
  CC50: 4140 nM
HT-29
  TGI HT-29: 1.74E−06 Molar
  GI50: 842 nM
  CC50: 3590 nM
IGROV-1
  GI50: 1180 nM
  LC50 (concentration causing 50% net cell killing): 3870 nM
  TGI IGROV: 2.14E−06 Molar
LoVo-Dox
  GI50: 147 nM
  TGI LOVO-DOX: 2.61E−07 Molar
  CC50: 463 nM
IGROV-ET
  GI50: 1000 nM
  TGI IGROV-ET: 1.85E−06 Molar
  CC50: 3410 nM
SK-BR-3
  GI50: 313 nM
  LC50: 2040 nM
  TGI SK-BR-3: 6.26E−07 Molar
DU-145
  GI50: 1200 nM
  LC50 (concentration causing 50% net cell kill): 3750 nM
  TGI DU-145: 2.12E−06 Molar
HeLa
  GI50: 1180 nM
  TGI HELA: 2.01E−06 Molar
  CC50: 3450 nM
LoVo
  GI50: 243 nM
  TGI LOVO: 7.21E−07 Molar
  CC50: 2160 nM
HeLa-APL
  GI50: 1350 nM
  TGI HELA-APL: 2.28E−06 Molar
  CC50: 3860 nM
A-549
  TGI A-549: 2.60E−06 Molar
  GI50: 1530 nM
  CC50: 4430 nM

## C/C=C1\NC(=O)[C@@H]2Cc3ccccc3CN2C(=O)[C@@H](C(C)C)NC(=O)[C@@H]([C@@H](C)CC)NC(=O)[C@H](NC(=O)[C@H](NC(=O)[C@H](CCCN)NC(=O)[C@H]2CCCN2C(=O)[C@H](NC(=O)[C@@H](NC(=O)[C@@H](NC(=O)[C@H](NC(=O)CC[C@@H](C)CC)C(C)C)[C@@H](C)O)C(C)C)C(C)C)[C@@H](C)CC)[C@@H](C)OC(=O)[C@H](C(C)C)NC1=O [Compound 77, [Tic^3, (4S)-MeHex^14]-KF] ({Hexanoyl(4S-Me)}-[dV]TV[dV][dP][Orn][d(aIle)][d(aThr)][d(aIle)][dV][Tic][Dhb]V; ester 8-C)
PANC-1
  GI50: 6740 nM
  TGI PANC-1: 6.74E−06 Molar
  CC50: 6740 nM
K-562
  GI50: 17 nM
  TGI K-562: 3.99E−06 Molar
  CC50: 6710 nM
SK-MEL-28
  GI50: 1580 nM
  TGI MEL-28: 3.41E−06 Molar
  CC50: 6710 nM
HT-29
  TGI HT-29: 2.21E−06 Molar
  GI50: 1230 nM
  CC50: 3970 nM
IGROV-1
  GI50: 1610 nM
  LC50 (concentration causing 50% net cell killing): 4260 nM
  TGI IGROV: 2.62E−06 Molar
LoVo-Dox
  GI50: 271 nM
  TGI LOVO-DOX: 8.32E−07 Molar
  CC50: 2140 nM
IGROV-ET
  GI50: 1420 nM
  TGI IGROV-ET: 2.34E−06 Molar
  CC50: 3860 nM
SK-BR-3
  GI50: 873 nM
  LC50: 5510 nM
  TGI SK-BR-3: 2.19E−06 Molar
DU-145
  GI50: 3630 nM
  LC50 (concentration causing 50% net cell kill): 6740 nM
  TGI DU-145: 6.71E−06 Molar
HeLa
  GI50: 1430 nM
  TGI HELA: 2.29E−06 Molar
  CC50: 3660 nM
LoVo
  GI50: 913 nM
  TGI LOVO: 1.76E−06 Molar
  CC50: 3400 nM
HeLa-APL
  GI50: 1570 nM
  TGI HELA-APL: 2.53E−06 Molar
  CC50: 4070 nM
A-549
  TGI A-549: 2.58E−06 Molar
  GI50: 1520 nM
  CC50: 4400 nM

## C/C=C1\NC(=O)[C@H](Cc2ccc(O)cc2)NC(=O)[C@@H](C(C)C)NC(=O)[C@@H]([C@@H](C)CC)NC(=O)[C@H](NC(=O)[C@H](NC(=O)[C@H](CCCN)NC(=O)[C@H]2CCCN2C(=O)[C@H](NC(=O)[C@@H](NC(=O)[C@@H](NC(=O)[C@H](NC(=O)CC[C@@H](C)CC)C(C)C)[C@@H](C)O)C(C)C)C(C)C)[C@@H](C)CC)[C@@H](C)OC(=O)[C@H](C(C)C)NC1=O [Compound 78, [Tyr^3, (4S)-MeHex^14]-KF] ({Hexanoyl(4S-Me)}-[dV]TV[dV][dP][Orn][d(aIle)][d(aThr)][d(aIle)][dV]Y[Dhb]V; ester 8-C)
PANC-1
  GI50: 2560 nM
  TGI PANC-1: 6.69E−06 Molar
  CC50: 6690 nM
K-562
  GI50: 1650 nM
  TGI K-562: 3.78E−06 Molar
  CC50: 6690 nM
SK-MEL-28
  GI50: 1120 nM
  TGI MEL-28: 2.01E−06 Molar
  CC50: 3590 nM
HT-29
  TGI HT-29: 1.99E−06 Molar
  GI50: 1080 nM
  CC50: 3700 nM
IGROV-1
  GI50: 877 nM
  LC50 (concentration causing 50% net cell killing): 3330 nM
  TGI IGROV: 1.71E−06 Molar
LoVo-Dox
  GI50: 135 nM
  TGI LOVO-DOX: 2.89E−07 Molar
  CC50: 621 nM
IGROV-ET
  GI50: 930 nM
  TGI IGROV-ET: 1.79E−06 Molar
  CC50: 3420 nM
SK-BR-3
  GI50: 266 nM
  LC50: 2580 nM
  TGI SK-BR-3: 1.02E−06 Molar
DU-145
  GI50: 1270 nM
  LC50 (concentration causing 50% net cell kill): 3760 nM
  TGI DU-145: 2.18E−06 Molar
HeLa
  GI50: 1160 nM
  TGI HELA: 1.97E−06 Molar
  CC50: 3360 nM
LoVo
  GI50: 390 nM
  TGI LOVO: 1.16E−06 Molar
  CC50: 2710 nM
HeLa-APL
  GI50: 964 nM
  TGI HELA-APL: 1.81E−06 Molar
  CC50: 3420 nM
A-549
  TGI A-549: 2.23E−06 Molar
  GI50: 1270 nM
  CC50: 3920 nM

From patent publication US20070117743A1, “New antitumoral compounds” (priority 2003, published 2007)
